# Paper PMC2010749, “Cytotoxic and clastogenic effects of soluble and insoluble compounds containing hexavalent and trivalent chromium” (British Journal of Cancer, 1981)
# Read-outs that look alike come from different tables or passages of the source.
# Experiments:
# [1] = system: HEp-2 human epithelial-like line; conditions: 2 h exposure to medium preincubated 2 days with 0.5 mg/ml in presence of BHK cells
# Method: (§1) Cell growth and labelling.-The reduction in cell growth, based on the nucleic acid content (DNA + RNA) of treated cultures, and the inhibition of DNA, RNA and protein syn- thesis, based on the incorporation of labelled precursors, were determined, to evaluate the cytotoxic effects of Cr compounds in BHK cell cultures. […] Three to four thousand cells were then examined for each dose level and each time interval, and the mitotic index (the ratio of all mitoses to the total number of cells) and the frequencies of each mitotic phase (the ratios of cells in each phase to total mitoses) were determined. […] Chromium compounds and cell treatments.- The tested compounds of Cr(VI) and Cr(III) and their physico-chemical properties are listed in Table I. In many experiments in which most of them were highly insoluble or only partially soluble (see Tables I, IV, V), Cr compounds were directly suspended in the growth medium used for treatments. […] The cytotoxic and clastogenic effects were usually deter- mined just at the end of Cr treatments, but sometimes the treated cells were washed with HBSS and incubated with normal growth medium, so that the effects of Cr were deter- mined at different times after the end of treatment (see Fig. 3 and Table VII).
# [2] = system: BHK 21 Syrian hamster fibroblast line; assay: DNA, RNA and protein syntheses in BHK cells, Cr compounds added directly to medium; format: cell-based; conditions: 48 h in MEM; 0.5/0.15/0.05 mg/ml (one value for all three)
# Method: as §1
# [3] = system: CHO Chinese hamster fibroblast line; assay: Cell growth of CHO cultures (DNA + RNA content); format: cell-based; conditions: 32 h in MEM; 0.3 µg/ml
# Method: as §1
# [4] = system: CHO Chinese hamster fibroblast line; conditions: 0.1 µg/ml water-soluble Cr(VI) (0.3 µg/ml of salt)
# Method: Cell growth and labelling.-The reduction in cell growth, based on the nucleic acid content (DNA + RNA) of treated cultures, and the inhibition of DNA, RNA and protein syn- thesis, based on the incorporation of labelled precursors, were determined, to evaluate the cytotoxic effects of Cr compounds in BHK cell cultures. […] Three to four thousand cells were then examined for each dose level and each time interval, and the mitotic index (the ratio of all mitoses to the total number of cells) and the frequencies of each mitotic phase (the ratios of cells in each phase to total mitoses) were determined. […] Chromium compounds and cell treatments.- The tested compounds of Cr(VI) and Cr(III) and their physico-chemical properties are listed in Table I. In many experiments in which most of them were highly insoluble or only partially soluble (see Tables I, IV, V), Cr compounds were directly suspended in the growth medium used for treatments. In the experiments on the induction of chromosome aberrations and SCE in CHO cells, almost complete solubilization was obtained in N HCI for Cr(III) compounds and 0-5N NaOH for Cr(VI) compounds, after which they were diluted with MEM to the final concentrations specified in Table IX. […]
# [5] = system: BHK 21 Syrian hamster fibroblast line; assay: DNA, RNA and protein syntheses in BHK monolayers exposed to filtered medium preincubated with Cr compounds; format: cell-based; conditions: cells exposed 24 h;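 note: DNA, RNA and protein synthesis in BHK cultures assessed by incorporation of labelled precursors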
# Method: as §1
# [6] = system: BHK 21 Syrian hamster fibroblast line; conditions: range in 4 experiments
# Method: as §1
# [7] = system: BHK 21 Syrian hamster fibroblast line; assay: Cell growth of BHK cultures (DNA + RNA content), Cr compounds added directly to medium; format: cell-based; conditions: 48 h in MEM; 0.5/0.15/0.05 mg/ml (one value for all three)
# Method: (§2) Cell growth and labelling.-The reduction in cell growth, based on the nucleic acid content (DNA + RNA) of treated cultures, and the inhibition of DNA, RNA and protein syn- thesis, based on the incorporation of labelled precursors, were determined, to evaluate the cytotoxic effects of Cr compounds in BHK cell cultures. […] Three to four thousand cells were then examined for each dose level and each time interval, and the mitotic index (the ratio of all mitoses to the total number of cells) and the frequencies of each mitotic phase (the ratios of cells in each phase to total mitoses) were determined. […] Chromium compounds and cell treatments.- The tested compounds of Cr(VI) and Cr(III) and their physico-chemical properties are listed in Table I. In many experiments in which most of them were highly insoluble or only partially soluble (see Tables I, IV, V), Cr compounds were directly suspended in the growth medium used for treatments. In the experiments on the induction of chromosome aberrations and SCE in CHO cells, almost complete solubilization was obtained in N HCI for Cr(III) compounds and 0-5N NaOH for Cr(VI) compounds, after which they were diluted with MEM to the final concentrations specified in Table IX. […] The cytotoxic and clastogenic effects were usually deter- mined just at the end of Cr treatments, but sometimes the treated cells were washed with HBSS and incubated with normal growth medium, so that the effects of Cr were deter- mined at different times after the end of treatment (see Fig. 3 and Table VII).
# [8] = Solubility of chromium compounds (Table I)
# Method: as §2
# [9] = preincubated 48 h with 0.05 mg/ml
# [10] = preincubated 48 h with 0.15 mg/ml
# [11] = preincubated 48 h with 0.5 mg/ml
smiles,measurement,setting,value
[K+].[K+].[O]=[Cr](=[O])([O-])[O][Cr](=[O])(=[O])[O-] [Potassium dichromate],Mitotic block (% increase of abnormal metaphases 2-4 h after treatment),[1],+++ (+ + + (> 100%))
same,"Mitotic inhibition, early (% reduction of normal prophases at the end of treatment)",[1],+++ (+ + + (> 70%))
same,"Mitotic inhibition, late (% reduction of normal prophases 24 h after treatment)",[1],+++ (+ + + (> 70%))
same,Caryological alterations,[1]; grades not defined,~+
same,DNA synthesis,[2],0 % of controls
same,Protein synthesis,[2],0 % of controls
same,RNA synthesis,[2],0 % of controls
same,Cell growth,[3],83 % control
same,Mean number of chromosome aberrations relative to control,[4],2-3 times the control values
same,"DNA synthesis, preinc. in MEM",[5]; [9],24 % of controls
same,"DNA synthesis, preinc. in MEM+BHK",[5]; [9],35 % of controls
same,"Protein synthesis, preinc. in MEM",[5]; [9],100 % of controls
same,"Protein synthesis, preinc. in MEM+BHK",[5]; [9],100 % of controls
same,"RNA synthesis, preinc. in MEM",[5]; [9],90 % of controls
same,"RNA synthesis, preinc. in MEM+BHK",[5]; [9],100 % of controls
same,"DNA synthesis, preinc. in MEM",[5]; [10],4 % of controls
same,"DNA synthesis, preinc. in MEM+BHK",[5]; [10],16 % of controls
same,"Protein synthesis, preinc. in MEM",[5]; [10],68 % of controls
same,"Protein synthesis, preinc. in MEM+BHK",[5]; [10],100 % of controls
same,"RNA synthesis, preinc. in MEM",[5]; [10],42 % of controls
same,"RNA synthesis, preinc. in MEM+BHK",[5]; [10],64 % of controls
same,"DNA synthesis, preinc. in MEM",[5]; [11],4 % of controls
same,"DNA synthesis, preinc. in MEM+BHK",[5]; [11],7 % of controls
same,"Protein synthesis, preinc. in MEM",[5]; [11],52 % of controls
same,"Protein synthesis, preinc. in MEM+BHK",[5]; [11],69 % of controls
same,"RNA synthesis, preinc. in MEM",[5]; [11],39 % of controls
same,"RNA synthesis, preinc. in MEM+BHK",[5]; [11],49 % of controls
same,Length of treatment giving 50% inhibition of RNA synthesis,[6]; K2Cr2O7 10 µg/ml in HBSS,1 to 2 h
same,Length of treatment giving 50% inhibition of protein synthesis,[6]; K2Cr2O7 10 µg/ml in HBSS,3 to 5 h
same,Length of treatment giving > 90% inhibition of DNA synthesis,[6]; K2Cr2O7 10 µg/ml in HBSS,2 to 3 h
same,Length of treatment giving > 90% inhibition of RNA synthesis,[6]; K2Cr2O7 10 µg/ml in HBSS,6 to 7 h
same,Length of treatment giving > 90% inhibition of protein synthesis,[6]; K2Cr2O7 10 µg/ml in HBSS,8 to 10 h
same,Length of treatment giving 50% inhibition of DNA synthesis,[6]; K2Cr2O7 10 µg/ml in MEM,0.5 to 1.0 h
same,Length of treatment giving 50% inhibition of RNA synthesis,[6]; K2Cr2O7 10 µg/ml in MEM,2 to 4 h
same,Length of treatment giving 50% inhibition of protein synthesis,[6]; K2Cr2O7 10 µg/ml in MEM,5 to 9 h
same,Length of treatment giving > 90% inhibition of DNA synthesis,[6]; K2Cr2O7 10 µg/ml in MEM,2 to 3 h
same,Length of treatment giving > 90% inhibition of RNA synthesis,[6]; K2Cr2O7 10 µg/ml in MEM,> 10 h
same,Length of treatment giving > 90% inhibition of protein synthesis,[6]; K2Cr2O7 10 µg/ml in MEM,> 10 h
same,Length of treatment giving 50% inhibition of DNA synthesis,[6]; K2Cr2O7 100 µg/ml in MEM,0 to 25 h
same,Length of treatment giving 50% inhibition of protein synthesis,[6]; K2Cr2O7 100 µg/ml in MEM,1 to 3 h
same,Length of treatment giving > 90% inhibition of DNA synthesis,[6]; K2Cr2O7 100 µg/ml in MEM,0 to 75 h
same,Length of treatment giving > 90% inhibition of RNA synthesis,[6]; K2Cr2O7 100 µg/ml in MEM,5 to 7 h
same,Length of treatment giving > 90% inhibition of protein synthesis,[6]; K2Cr2O7 100 µg/ml in MEM,6 to 10 h
same,Cell growth,[7],0 % of controls
same,Solubility in water,[8],High
